Results from US12376589B2, “Chryseobacterium insect inhibitory microbial compositions and methods of making and using” (priority 2021, dated 2025).
In brackets after ≈: the same amount, converted by molar mass. Like-named read-outs stand apart in the source and are kept apart here.

Experiments:
[1] = test system: Spodoptera eridania (southern armyworm); assay: Lepidopteran diet overlay bioassay; conditions: 168 h, read-out: Mortalities (%) after 7 days of treatment (Abbott’s Correction), SAW
Procedure: (§1) Lepidopteran bioassays. Lepidopteran bioassays were performed at Benzon Research, Inc. (Carlisle, PA). 3,3′-Diindolylmethane samples were solubilized in dimethyl sulfoxide (DMSO). Samples were then frozen and shipped to Benzon. Samples were resuspended with 9× volumes of water before application to the assay well. The final DMSO concentration in the assay well was 2%. PLU6 extract samples were prepared as a series of three 1:5 dilutions in dimethyl sulfoxide. Samples were then further diluted with fresh NYSM broth, then shipped to Benzon Research for use in a diet overlay assay. Assays were performed using neonate larvae of 14 different Lepidopteran species (Anticarsia gemmatalis (velvetbean caterpillar), Diatraea grandiosella (southwestern corn borer), Diatraea saccharalis (sugarcane borer), Ostrinia nubilalis (European corn borer), Trichoplusia ni (cabbage looper), Chrysodeixis includens (soybean looper), Spodoptera exigua (beet armyworm), Spodoptera frugiperda (fall armyworm), Spodoptera eridania (southern armyworm), Chloridia virescens (tobacco budworm), Helicoverpa zea (corn earworm), Agrotis ipsilon (black cutworm), Cydia pomonella (codling moth), Plutella xylostella (diamondback moth) with an N=16 or N=32, apart from P. xylostella, for which third instar larvae were used. A diet-surface overlay format was used, in which 500 microliters of diet was placed in each well. One hundred microliters of sample was then pipetted into each well and allowed to dry. A DMSO control was included with each set of samples. An internal Btk (Bacillus thurengiensis kurstaki) standard at a concentration of 1000 ppm was used as a positive control, and water was used as a negative control.

[2] = test system: Cydia pomonella (codling moth); assay: Lepidopteran diet overlay bioassay; conditions: 168 h, read-out: Mortalities (%) after 7 days of treatment (Abbott’s Correction), CM
Procedure: as §1

[3] = test system: Diatraea saccharalis (sugarcane borer); assay: Lepidopteran diet overlay bioassay; conditions: 168 h, read-out: Mortalities (%) after 7 days of treatment (Abbott’s Correction), SCB
Procedure: as §1

[4] = test system: Helicoverpa zea (corn earworm); assay: Lepidopteran diet overlay bioassay; conditions: 168 h, read-out: Mortalities (%) after 7 days of treatment (Abbott’s Correction), CEW
Procedure: as §1

[5] = test system: Chrysodeixis includens (soybean looper); assay: Lepidopteran diet overlay bioassay; conditions: in Glycine max, 168 h, read-out: Mortalities (%) after 7 days of treatment (Abbott’s Correction), SBL
Procedure: as §1

[6] = test system: Diatraea grandiosella (southwestern corn borer); assay: Lepidopteran diet overlay bioassay; conditions: in Zea mays, 168 h, read-out: Mortalities (%) after 7 days of treatment (Abbott’s Correction), SWCB
Procedure: as §1

[7] = test system: Agrotis ipsilon (black cutworm); assay: Lepidopteran diet overlay bioassay
Procedure: as §1

[8] = test system: Culex quinquefasciatus larvae; assay: whole plant or invertebrate; conditions: read-out: LC50 (representative curve fit)
Excerpt: (§2) Measuring potency of 3,3-diindolylmethane and 3-((1H-indol-2-yl)methyl)-1H-indole. 3,3′-Diindolylmethane (also called arundine, CAS number: 1968-05-4) was purchased from MILLIPORESIGMA (cat #74601) and Cayman Chemical (catalog #15927). 3-((1H-indol-2-yl)methyl)-1H-indole (CAS number: 114648-66-7) was purchased from Ambeed (catalog #A735658). Compounds were resuspended in dimethyl sulfoxide (DMSO). For collecting data to construct dose curves for 3,3-diindolylmethane and 3-((1H-indol-2-yl)methyl)-1H-indole, a series of twenty 1:2 dilutions was made to test in bioassays, establish a dose curve, and determine the LC50 value.
Culex quinquefasciatus bioassays with compounds. First or second instar Culex quinquefasciatus larvae were purchased from Benzon Research, Inc. (Carlisle, PA). Assays were performed with third instar larvae. Larvae were washed with sterile water before transfer to 24-well assay plates containing 1 mL of sterile water in each well. Each well contained 5 larvae. Compound dilutions were made in DMSO, topped with sterile NYSM broth and applied to each assay well. The final DMSO concentration was 1% in each assay well. Larvae mortality was scored for each well at 24-hour timepoints after application.

Aedes aegypti larvae = assay: whole plant or invertebrate; conditions: for LC50: Aedes aegypti
Excerpt: as §2
Aedes aegypti bioassays with compounds. Assays were performed using second or third instar larvae, with biological replication. Larvae were washed with sterile water before transfer to 24-well assay plates containing 1 mL of sterile water in each well. Each well contained 5 larvae. Compound dilutions were made in DMSO, topped with sterile NYSM broth and applied to each assay well. The final DMSO concentration was 1% in each assay well. Larval mortality was scored for each well at 24-hour timepoints after application.
Heat treatments. Samples were heated in 1.5-mL microfuge tubes in a standard laboratory heat block at the indicated temperature and time.
The EtOAc fraction was redissolved in MeOH and subjected to chromatographic fractionation (FIG. 11C) using preparative reversed-phase HPLC (Phenomenex Luna phenylhexyl, 21.2 mm×15 cm, 5 μm, 20 mL/min, isocratic elution with 80% H2O/MeCN for 2 min followed by gradient elution from 80% H2O/MeCN to 100% MeCN over 30 min then isocratic elution with 100% MeCN for 5 min) to yield 30 fractions. The preparative HPLC fractions (at concentrations of 200 μg/mL and 20 μg/mL) were tested against Aedes aegypti.

[9] = Agrotis ipsilon, 168 h, read-out: Mortalities (%) after 7 days of treatment (Abbott’s Correction), BCW

c1ccc2c(Cc3c[nH]c4ccccc34)c[nH]c2c1 [3,3′-diindolylmethane, 3,3′-Diindolylmethane]
mortality at 156.25 µg/mL [1]: 22.6%
mortality at 625 µg/mL [1]: 100%
mortality at 2500 µg/mL [1]: 100%
mortality at 156.25 µg/mL [2]: 21.4%
mortality at 625 µg/mL [2]: 50%
mortality at 2500 µg/mL [2]: 39.3%
mortality at 156.25 µg/mL [3]: 100%
mortality at 625 µg/mL [3]: 100%
mortality at 2500 µg/mL [3]: 100%
mortality at 156.25 µg/mL [4]: 40.6%
mortality at 625 µg/mL [4]: 50%
mortality at 2500 µg/mL [4]: 90.6%
mortality at 156.25 µg/mL [5]: 26.7%
mortality at 625 µg/mL [5]: 50%
mortality at 2500 µg/mL [5]: 80%
mortality at 156.25 µg/mL [6]: 46.7%
mortality at 625 µg/mL [6]: 90%
mortality at 2500 µg/mL [6]: 83.3%
mortality at 156.25 µg/mL [7, 9]: 0%
mortality at 625 µg/mL [7, 9]: 26.7%
mortality at 2500 µg/mL [7, 9]: 20%
activity against A. ipsilon ([7]; diet overlay): low or not observed
LC50 [8]: 7.5 µg/mL (≈ 30.4 µM)
LC50 (Aedes aegypti larvae; read-out: LC50 (representative curve fit)): 10.2 µg/mL (≈ 41.4 µM)
LC50 (Aedes aegypti larvae; read-out: mean LC50): 7.5 ± 3 µg/mL (≈ 30.4 µM)
activity against Aedes aegypti larvae (Aedes aegypti larvae; in vivo): exhibited larvicidal activity
